Data reported in article PMC4032265 (PLoS ONE, 2014).

Assays:
D2 dopaminergic receptor = D2 dopaminergic receptor (Homo sapiens, UniProt P14416); experiment: PDSP radioligand binding, D2; conditions: read-out: % inhibition at 10 µM; single concentration 10 µM
hERG potassium channel = hERG potassium channel (Homo sapiens, UniProt Q12809); experiment: PDSP hERG functional assay; type: cell-based; conditions: single point 10 µM
[1] = target: H4 histaminergic receptor (Homo sapiens, UniProt Q9H3N8); experiment: PDSP radioligand binding, H4; conditions: read-out: % inhibition at 10 µM; single concentration 10 µM
Chain of H4 histaminergic receptor (Q9H3N8 whole entry): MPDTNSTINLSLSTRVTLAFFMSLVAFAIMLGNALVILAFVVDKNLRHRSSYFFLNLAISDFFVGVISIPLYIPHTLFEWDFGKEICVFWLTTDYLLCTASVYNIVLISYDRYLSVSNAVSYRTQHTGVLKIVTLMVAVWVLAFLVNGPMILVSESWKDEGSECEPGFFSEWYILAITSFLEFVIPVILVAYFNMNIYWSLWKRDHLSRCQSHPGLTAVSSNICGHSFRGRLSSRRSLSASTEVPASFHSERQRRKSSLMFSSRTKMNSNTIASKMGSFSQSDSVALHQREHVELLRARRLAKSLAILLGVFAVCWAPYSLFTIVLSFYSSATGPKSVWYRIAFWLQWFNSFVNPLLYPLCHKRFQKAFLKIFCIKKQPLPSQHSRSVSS

[2] = target: T1, M4 muscarinic acetylcholine receptor (Homo sapiens, UniProt P08173); experiment: PDSP radioligand binding, M4; conditions: read-out: % inhibition at 10 µM; single concentration 10 µM
T1 sequence (P08173 1-479): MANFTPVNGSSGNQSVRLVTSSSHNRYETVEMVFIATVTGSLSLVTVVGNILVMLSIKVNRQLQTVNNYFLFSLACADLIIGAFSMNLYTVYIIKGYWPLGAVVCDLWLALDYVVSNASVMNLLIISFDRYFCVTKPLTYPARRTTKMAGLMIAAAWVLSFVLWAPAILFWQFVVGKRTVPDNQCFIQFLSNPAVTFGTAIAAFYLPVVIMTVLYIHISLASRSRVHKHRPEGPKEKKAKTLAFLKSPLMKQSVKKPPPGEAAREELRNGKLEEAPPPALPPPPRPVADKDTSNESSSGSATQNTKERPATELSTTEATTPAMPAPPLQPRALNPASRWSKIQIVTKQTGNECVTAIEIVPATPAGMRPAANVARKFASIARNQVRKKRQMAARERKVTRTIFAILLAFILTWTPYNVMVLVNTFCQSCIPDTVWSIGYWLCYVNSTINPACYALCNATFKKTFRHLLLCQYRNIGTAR

[3] = target: 5HT5A serotonergic receptor (Homo sapiens, UniProt P47898); experiment: PDSP radioligand binding, 5HT5A; conditions: read-out: % inhibition at 10 µM; single concentration 10 µM
Chain of 5HT5A serotonergic receptor (P47898 whole entry): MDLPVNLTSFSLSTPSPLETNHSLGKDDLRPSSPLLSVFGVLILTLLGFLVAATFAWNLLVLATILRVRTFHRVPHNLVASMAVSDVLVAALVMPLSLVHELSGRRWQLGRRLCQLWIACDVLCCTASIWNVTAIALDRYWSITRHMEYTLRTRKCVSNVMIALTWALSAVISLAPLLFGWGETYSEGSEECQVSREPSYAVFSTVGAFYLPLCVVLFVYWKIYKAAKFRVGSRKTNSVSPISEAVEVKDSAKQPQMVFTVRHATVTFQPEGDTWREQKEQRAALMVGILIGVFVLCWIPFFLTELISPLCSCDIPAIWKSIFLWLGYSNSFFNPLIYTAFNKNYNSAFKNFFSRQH

α1D adrenergic receptor = target: T2, α1D adrenergic receptor (Homo sapiens, UniProt P25100); experiment: PDSP radioligand binding, α1D; conditions: read-out: % inhibition at 10 µM; single concentration 10 µM
T2 sequence (P25100 1-572): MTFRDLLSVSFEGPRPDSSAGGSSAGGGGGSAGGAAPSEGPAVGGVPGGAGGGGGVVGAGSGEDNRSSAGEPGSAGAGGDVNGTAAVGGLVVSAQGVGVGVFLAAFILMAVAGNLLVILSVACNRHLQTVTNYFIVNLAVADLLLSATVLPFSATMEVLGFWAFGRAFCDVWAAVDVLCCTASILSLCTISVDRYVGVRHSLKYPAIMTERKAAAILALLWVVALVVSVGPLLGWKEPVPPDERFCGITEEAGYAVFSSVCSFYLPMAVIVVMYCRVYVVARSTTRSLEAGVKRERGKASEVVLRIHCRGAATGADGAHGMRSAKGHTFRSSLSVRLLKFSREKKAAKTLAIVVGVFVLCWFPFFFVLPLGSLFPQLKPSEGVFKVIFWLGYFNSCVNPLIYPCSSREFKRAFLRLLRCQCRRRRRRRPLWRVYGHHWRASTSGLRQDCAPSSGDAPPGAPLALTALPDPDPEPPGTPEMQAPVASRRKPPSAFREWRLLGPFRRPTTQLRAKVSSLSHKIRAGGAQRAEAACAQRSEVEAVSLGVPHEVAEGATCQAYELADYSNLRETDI

[4] = target: T3, 5HT2C serotonergic receptor (Homo sapiens, UniProt P28335); experiment: PDSP radioligand binding, 5HT2C
T3 sequence (P28335 33-458): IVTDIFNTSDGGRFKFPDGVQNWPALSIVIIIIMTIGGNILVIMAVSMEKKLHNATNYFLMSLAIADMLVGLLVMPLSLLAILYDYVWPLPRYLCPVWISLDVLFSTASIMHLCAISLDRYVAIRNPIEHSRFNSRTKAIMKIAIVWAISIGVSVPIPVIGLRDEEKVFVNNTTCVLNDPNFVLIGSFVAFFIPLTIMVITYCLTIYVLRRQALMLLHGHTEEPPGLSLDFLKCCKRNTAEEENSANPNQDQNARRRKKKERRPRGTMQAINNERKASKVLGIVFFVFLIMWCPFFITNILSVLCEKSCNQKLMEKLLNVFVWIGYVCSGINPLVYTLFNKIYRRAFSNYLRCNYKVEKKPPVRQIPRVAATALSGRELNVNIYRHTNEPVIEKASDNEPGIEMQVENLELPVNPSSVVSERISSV

[5] = target: 5HT6 serotonergic receptor (Homo sapiens, UniProt P50406); experiment: PDSP radioligand binding, 5HT6; conditions: read-out: % inhibition at 10 µM; single concentration 10 µM
Chain of 5HT6 serotonergic receptor (P50406 whole entry): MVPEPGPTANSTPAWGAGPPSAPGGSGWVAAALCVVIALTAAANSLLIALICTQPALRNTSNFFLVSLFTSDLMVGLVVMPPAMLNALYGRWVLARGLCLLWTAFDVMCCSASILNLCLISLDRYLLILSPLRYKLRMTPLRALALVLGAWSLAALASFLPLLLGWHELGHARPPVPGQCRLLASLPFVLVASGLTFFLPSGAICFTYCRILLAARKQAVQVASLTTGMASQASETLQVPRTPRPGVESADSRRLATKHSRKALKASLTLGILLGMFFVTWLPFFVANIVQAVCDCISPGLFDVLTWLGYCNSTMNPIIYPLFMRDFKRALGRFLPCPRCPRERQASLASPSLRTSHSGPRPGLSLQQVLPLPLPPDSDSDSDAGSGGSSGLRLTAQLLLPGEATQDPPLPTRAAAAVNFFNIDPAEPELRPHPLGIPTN

D5 dopaminergic receptor = D5 dopaminergic receptor (Homo sapiens, UniProt P21918); experiment: PDSP radioligand binding, D5; conditions: read-out: % inhibition at 10 µM; single concentration 10 µM
Chain of D5 dopaminergic receptor (P21918 whole entry): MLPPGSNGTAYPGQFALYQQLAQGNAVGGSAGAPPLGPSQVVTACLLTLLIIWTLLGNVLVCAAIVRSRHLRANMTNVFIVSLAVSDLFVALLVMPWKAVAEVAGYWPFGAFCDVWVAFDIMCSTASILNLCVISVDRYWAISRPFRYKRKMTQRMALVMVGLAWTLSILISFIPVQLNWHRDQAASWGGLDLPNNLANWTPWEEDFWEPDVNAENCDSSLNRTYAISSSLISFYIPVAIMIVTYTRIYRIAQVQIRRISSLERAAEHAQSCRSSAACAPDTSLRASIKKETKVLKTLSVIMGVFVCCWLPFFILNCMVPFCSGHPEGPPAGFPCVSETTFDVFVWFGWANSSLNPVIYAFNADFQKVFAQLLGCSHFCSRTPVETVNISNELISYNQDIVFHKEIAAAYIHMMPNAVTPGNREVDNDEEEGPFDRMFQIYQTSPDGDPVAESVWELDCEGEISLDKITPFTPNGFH

σ2 receptor = target: T4, σ2 receptor (Rattus norvegicus, UniProt Q5U3Y7); experiment: PDSP radioligand binding, σ2; conditions: read-out: % inhibition at 10 µM; single concentration 10 µM
T4 sequence (Q5U3Y7 1-176): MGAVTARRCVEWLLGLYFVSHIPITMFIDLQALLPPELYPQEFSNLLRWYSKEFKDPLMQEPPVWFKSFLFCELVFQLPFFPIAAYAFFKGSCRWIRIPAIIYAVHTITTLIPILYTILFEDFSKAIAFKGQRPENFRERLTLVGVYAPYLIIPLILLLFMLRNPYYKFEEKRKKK

[6] = target: peripheral benzodiazepine receptor (PBR) (Rattus norvegicus, UniProt P16257); experiment: PDSP radioligand binding, PBR; conditions: read-out: % inhibition at 10 µM; single concentration 10 µM
δ opioid receptor = δ opioid receptor (Homo sapiens, UniProt P41143); experiment: PDSP radioligand binding, δ opioid; conditions: read-out: % inhibition at 10 µM; single concentration 10 µM
Chain of δ opioid receptor (P41143 whole entry): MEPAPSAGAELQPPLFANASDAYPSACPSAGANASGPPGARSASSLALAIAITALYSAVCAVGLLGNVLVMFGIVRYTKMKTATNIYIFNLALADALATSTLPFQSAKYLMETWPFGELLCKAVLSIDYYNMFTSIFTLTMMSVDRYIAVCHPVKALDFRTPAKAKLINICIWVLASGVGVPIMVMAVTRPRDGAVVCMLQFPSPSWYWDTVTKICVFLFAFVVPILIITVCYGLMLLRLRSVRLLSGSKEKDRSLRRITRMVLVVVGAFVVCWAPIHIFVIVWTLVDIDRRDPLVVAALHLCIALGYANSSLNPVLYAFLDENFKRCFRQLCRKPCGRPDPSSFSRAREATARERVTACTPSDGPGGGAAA

α2B adrenergic receptor = target: T5, α2B adrenergic receptor (Homo sapiens, UniProt P18089); experiment: PDSP radioligand binding, α2B; conditions: read-out: % inhibition at 10 µM; single concentration 10 µM
T5 sequence (P18089 1-450): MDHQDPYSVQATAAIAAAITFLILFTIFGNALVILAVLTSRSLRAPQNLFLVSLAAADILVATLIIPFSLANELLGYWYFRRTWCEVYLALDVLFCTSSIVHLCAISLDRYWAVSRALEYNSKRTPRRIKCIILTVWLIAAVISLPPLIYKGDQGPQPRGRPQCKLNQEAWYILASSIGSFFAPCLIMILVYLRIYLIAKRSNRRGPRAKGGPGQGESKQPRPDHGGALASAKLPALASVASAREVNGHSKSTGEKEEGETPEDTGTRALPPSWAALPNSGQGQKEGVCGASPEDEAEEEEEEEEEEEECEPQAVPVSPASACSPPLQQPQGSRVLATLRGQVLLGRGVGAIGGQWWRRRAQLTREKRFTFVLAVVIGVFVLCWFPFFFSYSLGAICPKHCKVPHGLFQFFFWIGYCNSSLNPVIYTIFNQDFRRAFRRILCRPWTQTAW

κ opioid receptor = κ opioid receptor (Homo sapiens, UniProt P41145); experiment: PDSP radioligand binding, κ opioid; conditions: read-out: % inhibition at 10 µM
Chain of κ opioid receptor (P41145 whole entry): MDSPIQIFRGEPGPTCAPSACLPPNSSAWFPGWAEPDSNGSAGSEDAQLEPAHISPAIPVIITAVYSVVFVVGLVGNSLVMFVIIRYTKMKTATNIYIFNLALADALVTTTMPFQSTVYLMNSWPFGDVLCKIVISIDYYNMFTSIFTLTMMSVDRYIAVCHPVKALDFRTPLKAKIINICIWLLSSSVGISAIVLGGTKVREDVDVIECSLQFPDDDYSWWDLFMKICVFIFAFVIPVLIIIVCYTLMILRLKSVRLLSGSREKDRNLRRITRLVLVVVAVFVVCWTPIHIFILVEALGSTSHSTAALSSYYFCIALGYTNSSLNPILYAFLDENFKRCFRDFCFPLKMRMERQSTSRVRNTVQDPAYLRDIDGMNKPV

[7] = target: 5HT2A serotonergic receptor (Homo sapiens, UniProt P28223); experiment: PDSP radioligand binding, 5HT2A; conditions: read-out: % inhibition at 10 µM
Chain of 5HT2A serotonergic receptor (P28223 whole entry): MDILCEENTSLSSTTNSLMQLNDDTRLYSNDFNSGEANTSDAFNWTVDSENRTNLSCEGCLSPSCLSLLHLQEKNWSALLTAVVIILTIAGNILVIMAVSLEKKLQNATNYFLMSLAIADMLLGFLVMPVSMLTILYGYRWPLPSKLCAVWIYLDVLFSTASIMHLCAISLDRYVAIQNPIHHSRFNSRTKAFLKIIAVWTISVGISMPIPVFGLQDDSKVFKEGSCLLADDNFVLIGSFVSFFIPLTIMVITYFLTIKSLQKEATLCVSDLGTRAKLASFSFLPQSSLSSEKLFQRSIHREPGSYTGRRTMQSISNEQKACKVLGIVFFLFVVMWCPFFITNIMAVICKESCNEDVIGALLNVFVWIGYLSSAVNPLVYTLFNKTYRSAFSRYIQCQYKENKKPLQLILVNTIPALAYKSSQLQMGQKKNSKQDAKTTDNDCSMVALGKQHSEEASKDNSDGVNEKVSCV

Chain of D2 dopaminergic receptor (P14416 whole entry): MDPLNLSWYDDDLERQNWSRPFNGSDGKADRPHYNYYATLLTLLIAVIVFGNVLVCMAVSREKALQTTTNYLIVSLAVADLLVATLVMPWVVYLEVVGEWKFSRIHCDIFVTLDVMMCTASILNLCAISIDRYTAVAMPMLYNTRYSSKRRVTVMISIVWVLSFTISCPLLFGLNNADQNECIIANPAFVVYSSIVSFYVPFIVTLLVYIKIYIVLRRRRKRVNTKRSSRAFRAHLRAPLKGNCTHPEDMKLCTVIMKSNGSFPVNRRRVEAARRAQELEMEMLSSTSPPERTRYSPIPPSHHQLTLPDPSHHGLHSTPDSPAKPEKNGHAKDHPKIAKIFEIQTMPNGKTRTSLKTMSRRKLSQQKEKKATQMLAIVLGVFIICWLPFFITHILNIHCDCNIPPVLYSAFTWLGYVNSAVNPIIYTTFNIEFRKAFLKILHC
Chain of hERG potassium channel (Q12809 whole entry): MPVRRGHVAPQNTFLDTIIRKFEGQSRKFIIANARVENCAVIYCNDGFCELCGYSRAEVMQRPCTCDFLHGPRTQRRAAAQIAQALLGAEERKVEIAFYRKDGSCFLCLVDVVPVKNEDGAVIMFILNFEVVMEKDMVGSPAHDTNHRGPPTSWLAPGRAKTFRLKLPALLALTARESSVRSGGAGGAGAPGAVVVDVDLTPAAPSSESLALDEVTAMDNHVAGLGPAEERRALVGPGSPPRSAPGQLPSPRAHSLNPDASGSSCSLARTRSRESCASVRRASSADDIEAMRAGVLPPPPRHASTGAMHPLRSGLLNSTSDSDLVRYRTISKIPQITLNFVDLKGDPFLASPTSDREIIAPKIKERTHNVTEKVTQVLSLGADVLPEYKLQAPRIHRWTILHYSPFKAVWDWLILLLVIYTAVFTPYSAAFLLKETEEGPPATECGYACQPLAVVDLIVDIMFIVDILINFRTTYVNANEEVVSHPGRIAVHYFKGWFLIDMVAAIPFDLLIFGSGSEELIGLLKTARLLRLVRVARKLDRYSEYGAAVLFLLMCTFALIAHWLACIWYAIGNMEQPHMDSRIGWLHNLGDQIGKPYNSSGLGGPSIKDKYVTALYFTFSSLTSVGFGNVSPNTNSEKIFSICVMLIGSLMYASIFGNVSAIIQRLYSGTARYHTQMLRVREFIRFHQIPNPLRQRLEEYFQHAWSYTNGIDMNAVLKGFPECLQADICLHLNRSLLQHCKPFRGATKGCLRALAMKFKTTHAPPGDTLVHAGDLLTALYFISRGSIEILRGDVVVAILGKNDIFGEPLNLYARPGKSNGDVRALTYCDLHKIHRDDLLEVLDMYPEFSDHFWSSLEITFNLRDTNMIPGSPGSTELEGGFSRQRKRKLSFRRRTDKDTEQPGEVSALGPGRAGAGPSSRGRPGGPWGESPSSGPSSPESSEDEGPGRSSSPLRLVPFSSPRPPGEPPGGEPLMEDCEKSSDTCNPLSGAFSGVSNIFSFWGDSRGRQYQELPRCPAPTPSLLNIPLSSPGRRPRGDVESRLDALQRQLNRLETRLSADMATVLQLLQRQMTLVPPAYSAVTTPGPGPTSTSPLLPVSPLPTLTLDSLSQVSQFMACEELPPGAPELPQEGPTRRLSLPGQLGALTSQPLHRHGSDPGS

## O[C@@H]1[C@H](O)[C@@H]2C[C@@H]2[C@H]1n1cnc2c(NC(C3CC3)C3CC3)nc(Cl)nc21 [Compound 10]
D2 dopaminergic receptor
  inhibition at 10 µM: 29%
hERG potassium channel
  % inhibition at 10 µM (hERG functional assay): 4.5 ± 2.4%
[1]
  inhibition at 10 µM: 6%
[2]
  inhibition at 10 µM: 7%
[3]
  inhibition at 10 µM: 0%
α1D adrenergic receptor
  inhibition at 10 µM: 13%
[4]; full concentration-response curves, n = 3-6 unless noted
  Ki: 1850 ± 460 nM
[4]; read-out: % inhibition at 10 µM
  inhibition at 10 µM: 49%
[5]
  inhibition at 10 µM: 0%
D5 dopaminergic receptor
  inhibition at 10 µM: 0%
σ2 receptor
  inhibition at 10 µM: 0%
[6]
  inhibition at 10 µM: 0%
δ opioid receptor
  inhibition at 10 µM: 0%
α2B adrenergic receptor
  inhibition at 10 µM: 15%
κ opioid receptor
  inhibition at 10 µM: 0%
[7]
  inhibition at 10 µM: 0%
